Tests used:
[1] = Endogenous SNO-Hb and Hb(FeII)NO in rat blood by photolysis-chemiluminescence; type: in vivo; conditions: 45 minutes after infusion of 50 mg/kg
From the text: A highly sensitive photolysis-chemiluminescence methodology was employed, which had been used for measuring RSNOs (S-nitrosothiols) in biological systems (Gaston, B., et al., Proc. Natl. Acad. Sci. USA 90:10957-10961 (1993); Stamler, J. S., et al., Proc. Natl. Acad. Sci USA 89:7674-7677 (1992)). The method involves photolytic liberation of NO from the thiol, which is then detected in a chemiluminesence spectrometer by reaction with ozone. […]
Blood was obtained from the left ventricle (arterial) and jugular vein (venous) of anesthetized Sprague-Dawley rats. […] In 24 rats, Hb samples were divided in two aliquots which were then treated or not treated with 10-fold excess HgCl2 over protein concentration as measured by the method of Bradford. […] Under these conditions, any nitrite present was converted to S-nitrosoglutathione, which was then measured by photolysis-chemiluminescence (detection limit ˜1 nM). SNO-Hb was present in all arterial samples, and levels determined by this method (286±33 nM) were virtually identical to and not statistically different from those shown in Table 2. […]
A highly sensitive photolysis-chemiluminescence methodology was employed. […] The method involves photolytic liberation of NO from the thiol, which is then detected in a chemiluminesence spectrometer by reaction with ozone. […]

Sprague-Dawley rat = experiment: Mean arterial blood pressure in anesthetized rats after femoral vein bolus (Examples 5, 6); type: in vivo; conditions: for blood pressure response: bolus into femoral vein, 2-200 nmol/kg
From the text: Rats were anesthetized by intraperitoneal injection of pentobarbital and the femoral arteries and veins accessed by local cut down. The artery was then cannulated and the blood pressure monitored continuously using a Viggo Spectramed pressure transducer attached to a Gould recorder. An IBM PC (DATA Q Codas) was used for data acquisition.

[2] = tested on: rat brain (caudatoputamen nucleus); experiment: Brain blood flow in rats by H2 clearance (Example 12); type: in vivo; conditions: Example 12, FIG. 10
Procedure: SNO-Hb(FeII)O2, having a SNO/Hb ratio of 2, was prepared (from HbA0) by reaction with S-nitrosothiol. Rats breathing 21% O2 were injected (time 0) with Hbs prepared from HbA0 as indicated in FIG. 10 (open circles, SNO-Hb (100 nmol/kg); filled circles, SNO-Hb (1000 nmol/kg); filled squares, unmodified Hb (1000 nmol/kg)). Three rats were used per experiment. Blood flow was measured in brain using the H2 clearance method; microelectrodes were placed in the brain stereotactically. […] NO group release is promoted by local tissue hypoxia.

platelets = experiment: ADP-induced aggregation of platelet-rich plasma; type: cell-based, human; conditions: 5 μM ADP
Procedure: Venous blood, anticoagulated with […] sodium citrate, was obtained from volunteers who had not consumed acetylsalicylic acid or any other platelet-active agent for at least 10 days. Platelet-rich plasma was prepared by centrifugation at 150×g for 10 minutes at 25° C. and was used within 2 hours of collection. Platelet counts were determined with a Coulter counter (model ZM) to be 1.5 to 3×10^8/ml.
Aliquots (0.3 ml) of platelets were incubated at 37° C. and stirred at 1000 rpm in a PAP-4 aggregometer (Biodata, Hatsboro, Pa.). Hemoglobins were preincubated with platelets for 10 min and aggregations were induced with 5 μM ADP. Aggregations were quantified by measuring the maximal rate and extent of change of light transmittance and are expressed as a normalized value relative to control aggregations performed in the absence of hemoglobin.

rabbit aortic ring = experiment: Vessel ring bioassay of SNO-Hb preparations (Examples 4, 13); type: cell-based; conditions: for effect of added glutathione on the dose-response: glutathione 100 ∥M in bioassay chambers (FIG. 4B); for vasoactivity in vascular ring bioassay: no added thiol (FIG. 4A)
Procedure: Details of the vessel ring bioassay have been published (Stamler, J. S., et al., Proc. Natl. Acad. Sci. USA 89:444-448 (1992)). SNO-Hb(FeII)O2 preparations were synthesized with 10-fold excess S-nitrosocysteine (CYSNO) over Hb(FeII)O2 protein (2% borate, 0.5 mM EDTA, ˜15 min incubation), after which desalting was performed across Sephadex G-25 columns. CYSNO was synthesized in 0.5 N HCl, 0.5 mM EDTA and then neutralized (1:1) in 1 M phosphate buffer containing 0.5 mM EDTA. […] The latter was synthesized by treatment of Hb(FeII)O2 with excess ferricyanide, followed by desalting across G-25 columns. SNO-Hb concentrations were verified spectroscopically and the S-nitrosothiol content was determined by the method of Saville (Stamler, J. S., et al., Proc. Natl. Acad. Sci USA 89:444-448 (1992)). The S—NO/tetramer stoichiometry for both SNO-Hb preparations was ˜2. Oxidation of the heme was undetectable by uv-spectrophotometric methods.
The aortic ring bioassay was performed as described in Example 4. The product of the reaction in which a ratio of 100:1 CYSNO/Hb tetramer was used, contains 2 SNOs as well as NO attached to the heme.

[3] = Decomposition and stability of SNO-Hb forms; type: physicochemical; conditions: as synthesized in Example 27
Procedure: Hbs in PBS (0.5 mM EDTA, pH 7.4) were incubated in air (oxy) or in a tonometer previously evacuated of O2 (deoxy). SNO-Hb(FeII)O2 decomposition was determined by the method of Saville (Saville, B., Analyst 83:670-672 (1958)). Spontaneous decomposition of SNO-Hb(FeII) was followed spectrophotometrically by formation of Hb(FeII)NO. Transnitrosation reactions with glutathione were performed by addition of 100-fold excess glutathione over protein (50 μM), immediate processing of the reaction mixture under anaerobic conditions followed by rapid TCA precipitation, and analysis of RSNO in the supernatant. Rates of NO group transfer were too rapid to measure accurately by the standard methods used in this study.

[4] = Transnitrosation between SNO-Hb and glutathione; type: biochemical; conditions: SNO-Hb 100 μM, glutathione 10 mM
From the text: Data are presented as the amount of GSNO formed relative to the starting SNO-Hb concentration.
Thiol/SNO-Hb exchange, forming GSNO, was verified chemically (Stamler, J. S., et al., Proc. Natl. Acad. Sci. USA, 89:444-448 (1992)) following trichloroacetic acid precipitation (n=5).

cGMP in platelets = experiment: cGMP radioimmunoassay in platelet rich plasma; type: cell-based; conditions: 1, 10 and 100 μM; 5 min incubation
Procedure: Platelet rich plasma (PRP) was incubated with either hemoglobin, SNO-oxy Hb, or SNO-metHb for 5 min, after which the assay was terminated by the addition of 0.5 ml of ice cold trichloroacetic acid to 10%. Ether extractions of the supernatant were performed to remove trichloroacetic acid, and acetylation of samples with acetic anhydride was used to increase the sensitivity of the assay. Measurements of cyclic GMP were performed by radioimmunoassay (Stamler, J. et al., Circ. Res. 65:789-795 (1989)).

Row | Compound | depletion of SNO-Hb [1] [%] | depletion of total Hb-NO [1] [%] | increase in blood pressure (Sprague-Dawley rat; 50 mg/kg) | blood pressure response (Sprague-Dawley rat) | duration of effects on blood flow in rat brain [2] | inhibition of platelet aggregation (platelets; 10 nM to 100 μM preincubated 10 min) | effect of added glutathione on the dose-response (rabbit aortic ring) | vasoactivity in vascular ring bioassay (rabbit aortic ring) | stability of the isolated preparation [3] | time for blood pressure to normalize after hypotensive response (Sprague-Dawley rat) [min] | mean arterial pressure, post (Sprague-Dawley rat; after 200 nmol/kg (highest dose)) [mm Hg] | mean arterial pressure, pre (Sprague-Dawley rat; before 200 nmol/kg infusion) [mm Hg] | rate of NO group transfer to glutathione [4] | concentrations at which platelet aggregation is inhibited (platelets; preincubated 10 min) [µM] | concentration of cGMP measured (cGMP in platelets)
1 | CNC(=N)NCCC[C@H](N)C(=O)O [L-NMMA, N^ω-monomethyl-L-arginine] | 82 | 50±18 | about 20 mm Hg | – | – | – | – | – | – | – | – | – | – | – | –
2 | SNO-Hb(FeII)O2: S-nitroso-oxyhemoglobin made from oxyHb with excess S-nitrosocysteine | – | – | – | did not exhibit hypertensive effects | over 20 minutes | some inhibition of platelet aggregation at the higher concentrations tested | potentiates the dose-response | modest NO-like activity | quite stable | – | – | – | – | – | –
3 | SNO-Hb(FeIII): S-nitroso-methemoglobin, S-nitrosylated methemoglobin | – | – | – | hypotensive responses | – | – | potentiates the dose-response | vasodilator | inherently unstable | 10 | 74±6 | 108±4 | more rapid | ≥ 1 | less than that of native Hb
